Data: PMC6299216, “Gain-of-Function Mutations in the Phospholipid Flippase MprF Confer Specific Daptomycin Resistance” (mBio, 2018)
Values after ≈ are worked out from the molar mass of the structure shown. Ends that are not written are not given here.

Tests used:
[1] = tested on: S. aureus ΔmprF mutant with or without functional MprF; experiment: MIC, MIC test strips: mprF deletion mutant versus functional MprF; type: cell-based, Staphylococcus aureus; details: daptomycin with 50 mg/liter CaCl2, three independent experiments (Fig. 4A)
From the text: (§1) The common laboratory strain, methicillin-susceptible S. aureus SA113 (ATCC 35556) and its mprF knockout derivative SA113ΔmprF have been described recently ([17]). Point mutations in mprF were introduced by site-directed mutagenesis in Escherichia coli using E. coli/S. aureus shuttle vector pRB474 bearing mprF via the use of a QuikChange kit (Stratagene, La Jolla, CA, USA) (see Table S3 in the supplemental material), as described recently ([20]). Mutated derivatives of mprF were cloned in pRB474mprF and transferred into strain SA113ΔmprF. Expression of the pRB474mprF variants was mediated by the use of constitutive Bacillus subtilis promoter vegII. Plasmids were maintained with 10 μg/ml chloramphenicol in all studies, with the exception of the MIC assays.
(§2) The MICs of daptomycin, bacitracin, polymyxin B, vancomycin, and oxacillin were determined with MIC test strips from Liofilchem according to the manufacturer’s advice. The MICs of friulimicin B, nisin, and gallidermin were determined by broth microdilution in Mueller-Hinton broth (MHB) in a 24-well plate under shaking conditions. Friulimicin B and daptomycin MICs were determined in the presence of 50 mg/liter CaCl2. Other MICs were determined in the presence of 50 mg/liter CaCl2 when indicated.

[2] = tested on: S. aureus 113 (SA113) mprF mutant expressing MprF with S295L, P314L, S337L, I420N or L826F; experiment: MIC, MIC test strips (Liofilchem); type: cell-based, Staphylococcus aureus; details: mutations S295L, I420N and L826F, 50 mg/liter CaCl2 (Fig. 1B)
From the text: as §1, §2

[3] = tested on: S. aureus with chromosomal deletion of MprF; details: cited from earlier work
From the text: Daptomycin is the first approved drug of a new class of calcium-dependent lipopeptide antibiotics, whose entire mode of action is still not fully understood ([6], [8]). It interacts with phosphatidylglycerol (PG) and interferes with bacterial fluid membrane microdomains, which leads to inhibition of cell wall synthesis ([9]). However, it is unclear if its activity requires a specific docking molecule in the membrane ([9], [10]). How point mutations in different S. aureus proteins contribute to or cause DAP-R remains equally elusive ([6]). Several proteins involved in the synthesis, regulation, ...

[4] = tested on: S. aureus ΔmprF mutant expressing E206A-T345A MprF (pRB-E206A-T345A); experiment: MIC, MIC test strips, flippase-inactivated MprF; type: cell-based, Staphylococcus aureus
From the text: as §1, §2

[5] = tested on: S. aureus ΔmprF mutant expressing R112A-T345A MprF (pRB-R112A-T345A); experiment: MIC, MIC test strips, flippase-inactivated MprF; type: cell-based, Staphylococcus aureus
From the text: as §1, §2

[6] = tested on: S. aureus ΔmprF mutant expressing D71A-T345A MprF (pRB-D71A-T345A); experiment: MIC, MIC test strips, flippase-inactivated MprF; type: cell-based, Staphylococcus aureus
From the text: as §1, §2

[7] = tested on: S. aureus 113 (SA113) mprF mutant expressing T345A-MprF (pRB-T345A); type: cell-based, Staphylococcus aureus; details: T345A mutation in MprF on plasmid in SA113 mprF mutant; MIC test strips; 50 mg/liter CaCl2; mean of at least five independent experiments (Fig. 1B)
From the text: as §1, §2

[8] = tested on: S. aureus 113 (SA113) mprF mutant expressing parental (wild-type) MprF (pRBmprF); type: cell-based, Staphylococcus aureus; details: parental MprF sequence on plasmid in SA113 mprF mutant; MIC test strips; 50 mg/liter CaCl2; mean of at least five independent experiments (Fig. 1B)
From the text: as §1, §2

[9] = tested on: S. aureus 113 (SA113) mprF mutant expressing V351E-MprF (pRB-V351E); type: cell-based, Staphylococcus aureus; details: V351E mutation in MprF on plasmid in SA113 mprF mutant; MIC test strips; 50 mg/liter CaCl2; mean of at least five independent experiments (Fig. 1B)
From the text: as §1, §2

[10] = tested on: S. aureus ΔmprF mutant with or without functional MprF; experiment: MIC, broth microdilution: mprF deletion mutant versus functional MprF; type: cell-based, Staphylococcus aureus; details: broth microdilution in Mueller-Hinton broth, 24-well plate, shaking; friulimicin B with 50 mg/liter CaCl2; three independent experiments (Fig. 4A)
From the text: as §1, §2

[11] = tested on: S. aureus ΔmprF mutant expressing T345A-MprF; experiment: MIC, broth microdilution; type: cell-based, Staphylococcus aureus; details: T345A mutation; broth microdilution in MHB; 50 mg/liter CaCl2; three independent experiments (Fig. 4A)
From the text: as §1, §2

[12] = tested on: S. aureus ΔmprF mutant expressing V351E-MprF; experiment: MIC, broth microdilution; type: cell-based, Staphylococcus aureus; details: V351E mutation; broth microdilution in MHB; 50 mg/liter CaCl2; three independent experiments (Fig. 4A)
From the text: as §1, §2

## polymyxin B
[1]
  ability to inhibit S. aureus growth (MIC) with functional MprF versus mprF deletion mutant: reduced in the presence of a functional MprF protein

## vancomycin
[1]
  ability to inhibit S. aureus growth (MIC) with functional MprF versus mprF deletion mutant: reduced in the presence of a functional MprF protein

## CCCCCCCCCC(=O)N[C@@H](Cc1c[nH]c2ccccc12)C(=O)N[C@H](CC(N)=O)C(=O)N[C@@H](CC(=O)O)C(=O)N[C@@H]1C(=O)NCC(=O)N[C@@H](CCCN)C(=O)N[C@@H](CC(=O)O)C(=O)N[C@H](C)C(=O)N[C@@H](CC(=O)O)C(=O)NCC(=O)N[C@H](CO)C(=O)N[C@@H]([C@H](C)CC(=O)O)C(=O)N[C@@H](CC(=O)c2ccccc2N)C(=O)O[C@@H]1C [daptomycin]
[2]
  daptomycin susceptibility compared to the parental MprF sequence: did not alter daptomycin susceptibility
[3]
  susceptibility after chromosomal deletion of MprF: hypersusceptibility
[4]; T345A in combination with R206A (so in the source), 50 mg/liter CaCl2, three independent experiments (Fig. 5B)
  ability of T345A to increase the MIC of daptomycin: not able to increase the daptomycin MIC
[5]; T345A in combination with R112A, 50 mg/liter CaCl2, three independent experiments (Fig. 5B)
  ability of T345A to increase the MIC of daptomycin: only slightly increased MIC
[6]; T345A in combination with D71A, 50 mg/liter CaCl2, three independent experiments (Fig. 5B)
  ability of T345A to increase the MIC of daptomycin: not able to increase the daptomycin MIC
[7]
  MIC: 3 µg/mL (≈ 1.85 µM)
[8]
  MIC: 1 µg/mL (≈ 0.617 µM)
[9]
  MIC: 3 µg/mL (≈ 1.85 µM)
[1]
  ability to inhibit S. aureus growth (MIC) with functional MprF versus mprF deletion mutant: reduced in the presence of a functional MprF protein

## gallidermin (IASKFLCTPGCAKTGSFNSYCC; also: lantibiotic: thioether rings and dehydro residues, places not given here; UniProt P21838 31-52, looked up)
[10]
  ability to inhibit S. aureus growth (MIC) with functional MprF versus mprF deletion mutant: reduced in the presence of a functional MprF protein

## Cc1onc(-c2ccccc2)c1C(=O)N[C@@H]1C(=O)N2[C@@H]1SC(C)(C)[C@@H]2C(=O)O [oxacillin]
[1]
  ability to inhibit S. aureus growth (MIC) with functional MprF versus mprF deletion mutant: not affected by MprF

## nisin (ITSISLCTPGCKTGALMGCNMKTATCHCSIHVSK; also: lantibiotic: thioether rings and dehydro residues, places not given here; UniProt P13068 24-57, looked up)
[10]
  ability to inhibit S. aureus growth (MIC) with functional MprF versus mprF deletion mutant: reduced in the presence of a functional MprF protein

## friulimicin B
[11]
  cross-resistance (MIC versus wild-type MprF): cross-resistance
[12]
  cross-resistance (MIC versus wild-type MprF): cross-resistance
[10]
  ability to inhibit S. aureus growth (MIC) with functional MprF versus mprF deletion mutant: reduced in the presence of a functional MprF protein

## bacitracin
[4]; T345A with flippase-inactivating mutation E206A, three independent experiments (Fig. 5A)
  MIC of bacitracin as indicator of flippase activity, compared to strains expressing a functional MprF: hypersusceptible
[5]; T345A with flippase-inactivating mutation R112A, three independent experiments (Fig. 5A)
  MIC of bacitracin as indicator of flippase activity, compared to strains expressing a functional MprF: hypersusceptible
[6]; T345A with flippase-inactivating mutation D71A, three independent experiments (Fig. 5A)
  MIC of bacitracin as indicator of flippase activity, compared to strains expressing a functional MprF: hypersusceptible
[1]
  ability to inhibit S. aureus growth (MIC) with functional MprF versus mprF deletion mutant: reduced in the presence of a functional MprF protein
